“Also recorded” adds a separate entry of the source.
Legend:
[1] = tested on: E0771 mammary carcinoma cells; experiment: E0771 mammary fat pad tumors in C57/BL6 mice, lung metastasis and lung immune profiling; type: in vivo; conditions: for primary tumor growth / size: 30 mg/kg daily oral gavage from palpable tumors (3 weeks), resection at week 4; for lung metastases (number of mice / incidence): 30 mg/kg daily vs vehicle, H&E lung sections
Description: In this study, E0771 mammary carcinoma cells were injected into the MFP of C57/BL6 mice. Treatment for this group started after tumors were palpable at 3-4 weeks. Similarly, no effect was observed on the primary tumor growth, yet lung metastases were decreased (FIG. 3, Panels A and B). […] Additionally, lung infiltrating CD8+ T-cells increased in iTEAD-treated mice (FIG. 3, Panel D).
E0771 cells were injected into the mammary fat pad of C57BL/6 mice (Johnstone et al., 2015). When primary tumors became palpable at 3 weeks, mice were treated daily with VT107 or vehicle control. Mice weights were monitored throughout treatment (FIG. 8, Panel B). Primary tumors were surgically resected at week 4 and mice were euthanized at week 6 to inspect lungs for metastases (FIG. 9, Panel A)
There was no difference in the primary tumor size between treatment groups nor the size of recurrent tumors at 6 weeks (FIG. 9, Panel B and FIG. 8, Panel C). […] To investigate tissue specific effects, gene expression changes between treatment groups in lung and tumor tissues were analyzed by RNA-sequencing. […] To reduce the impact of TEAD inhibition on cancer cell intrinsic function such as dissemination and invasion, 4T1, a triple negative mouse mammary carcinoma cell line (Pulaski & Ostrand-Rosenberg, 2000), was injected into the tail vein of BALB/c mice that directly seed into the lung tissue. A reduction in lung metastases, as well as the suppression of inflammatory pathways, were observed (FIG. 9, Panels E and F, and FIG. 8, Panel F).
Formalin-fixed, paraffin embedded (FFPE) lung tissue sections were stained with hematoxylin and eosin. Immunohistochemistry staining was performed on FFPE tumor and lung tissue sections. Slides were deparaffinized in xylene and rehydrated following a series of ethanol washes. Heat-induced antigen retrieval was then performed by placing slides in warmed sodium citrate buffer (pH 6.0) (Invitrogen, 005000) in a pre-heated steamer for 20 minutes. Slides were cooled at room temperature for an additional 20 minutes, prior to quenching endogenous peroxidase activity using 3% hydrogen peroxide buffer (Fisher, BP2633500) for 10 minutes. Next, slides were incubated overnight at 4° C. with either anti-CD8 (Cell Signaling Technology, #98941), anti-CD68 (Abcam, ab303565), anti-CD206 (Cell Signaling Technology, #24595), or anti-F480 (Cell Signaling Technology, #70076). Following PBS washes, the slides are then stained with a biotinylated secondary antibody using the VECTASTAIN Elite ABC-HRP Kit according to the user's manual (Vector Laboratories, PK-6101). Positive brown staining was produced by applying ImmPACT DAB EqV Substrate Kit (Vector Laboratories, SK-4103) to the slides, which were then counterstained with hematoxylin (Sigma, MHS16). Images were captured using the Olympus BX40 microscope, and positive staining was quantified manually. Immunofluorescent staining was performed on lung tissue sections. Slides were baked at 60°, deparaffinized in xylene, rehydrated, washed in DI water and incubated with 10% neutral buffered formalin (NBF) for an additional 20 minutes to increase tissue-slide retention. Epitope retrieval/microwave treatment (MWT) for all antibodies was performed by boiling slides in Antigen Retrieval buffer 6 (AR6 pH6, Akoya AR6001KT). Protein blocking is performed using antibody diluent/blocking buffer (Akoya, ARD1001EA) for 10 minutes at room temperature. Slides were incubated with Luciferase antibody (Sigma, #L0159) for 1 hour and OPAL Fluoresce 620 then counterstained with spectral DAPI (Akoya FP1490) for 5 min and mounted with ProLong Diamond Antifade (ThernoFisher, P36961). Slides were scanned at 10× magnification using the Vectra 3.0 Automated Quantitative Pathology Imaging System (PerkinElmer/Akoya).
Single cell suspensions were washed 2× with PBS. […]

[2] = tested on: THP1 macrophages; experiment: qPCR gene expression in THP1 macrophages; type: cell-based, human; conditions: 1 μM VT107 vs vehicle
Excerpt: To determine if knockdown of TEAD mimicked iTEAD effects, THP1 cells were transduced with shRNAs targeting TEAD 1, 3 and 4 or GFP as a control. Knockdown was confirmed by western blot with a pan TEAD antibody (FIG. 13, Panel A). […] TEAD knockdown in THP1 macrophages decreased protumor inflammatory cytokines CXCL2, 5, and 6 (FIG. 12, Panel C). […] Signaling pathways related to inflammatory diseases, such as rheumatoid arthritis, were decreased (FIG. 12, Panel D), as well as the inflammatory upstream regulators LPS and TNF (FIG. 12, Panel E). The score for M2-like upstream regulators, OSM (Shrivastava et al., 2019) and IL17A (Miller et al., 2020) was decreased by TEAD knockdown yet importantly, IL12 and the immune modulator used to enhance immunotherapy, NC410, scores were increased (Ramos et al., 2021) (FIG. 12, Panel D). Taken together, the response to iTEAD treatment or TEAD knockdown enhanced macrophages interaction with tumor cells and IL12 signaling. The global anti-inflammatory effect and the repression of the M2-like macrophage phenotypes are known to oppose the establishment of a hospitable metastatic niche (McGinnis et al., 2024; Sica et al., 2008; Noy & Pollard, 2014).
Total RNA was extracted from cell lines using a RNeasy Mini Kit (Qiagen, #74104) according to the manufacturer's instructions. cDNA from total RNA was made with the iScript cDNA synthesis kit according to the manufacturer's protocol (Biorad, #170-8891) and qPCR was performed in an iCycler iQ (BioRad) using the iQ SYBR Green Supermix (BioRad, #170-8882).

[3] = flow cytometry, tumor bearing mice
[4] = flow cytometry, tumor bearing mice, listed as iTEAD

Substance: VT107
- primary tumor growth / size [1]: no difference
- primary tumor growth / size ([1]; listed as iTEAD): no effect; also recorded: no change
- lung metastases (number of mice / incidence) [1]: significantly less incidence
- lung metastases (number of mice / incidence) ([1]; listed as iTEAD): decreased; also recorded: reduced
- number of CD8+ T-cells in lung tissue ([1]; CD8 immunohistochemistry, tumor bearing mice, listed as iTEAD): increase in the number and infiltration; also recorded: significantly greater
- CD8+ T-cells in lung metastatic lesions ([1]; CD8 immunohistochemistry, listed as iTEAD): infiltrated into lung metastases
- number of gene changes due to treatment, lungs compared to primary tumors ([1]; RNA-sequencing): higher number
- size of recurrent tumors ([1]; at 6 weeks, 2 weeks after resection): no difference
- CD86 (M1-like) in the lung macrophage population [1, 3]: significantly enriched
- CD86/CD206 shift in the alveolar macrophage population [1, 3]: also significant
- CD206 (M2-like) in the lung macrophage population [1, 3]: significantly reduced
- infiltrating macrophages / monocytes in the lungs [1, 4]: significant decrease
- lung infiltrating CD8+ T-cells [1, 4]: increased; also recorded: higher numbers
- resident alveolar macrophages in the lungs [1, 4]: higher frequency; also recorded: significant increase
- LXR/RXR anti-inflammatory pathway in lung tissues ([1]; pathway analysis): increased
- disease-related inflammation pathways (hepatic and lung fibrosis, cardiac hypertrophy) in lung tissues ([1]; pathway analysis): decrease
- CD80 gene expression level [2]: increase
- IL12 gene expression level [2]: increase
- expression of YAP/TEAD target genes CTGF, S100Δ8 and S100Δ9 [2]: downregulated
- expression of YAP/TEAD target genes CTGF, S100Δ8 and S100Δ9 ([2]; listed as iTEAD): decreased expression
